This is an account of results in ChEMBL document CHEMBL1201862, “PubChem BioAssay data set” (2004).

The structures appear in SMILES notation. The source made the active and inactive calls.

The subject of one assay is HEK293. Description: Fluorescence-based counterscreen for potentiators or agonists of NPY-Y2: cell-based high-throughput dose response assay to identify inhibitors of cyclic nucleotide gated ion channel (CNGC) activity. In this assay, the parental HEK293 cell line transfected with a cyclic-nucleotide gated ion channel (CNGC)-based cAMP sensor is used to measure inhibition of isoproterenol-induced CNGC activity by test compound. The assay is classed as functional. Conditions: Homo sapiens.

Assay [1] deals with T1, Neuropeptide Y receptor type 2 (Homo sapiens, UniProt P49146).
T1 sequence (P49146 whole entry): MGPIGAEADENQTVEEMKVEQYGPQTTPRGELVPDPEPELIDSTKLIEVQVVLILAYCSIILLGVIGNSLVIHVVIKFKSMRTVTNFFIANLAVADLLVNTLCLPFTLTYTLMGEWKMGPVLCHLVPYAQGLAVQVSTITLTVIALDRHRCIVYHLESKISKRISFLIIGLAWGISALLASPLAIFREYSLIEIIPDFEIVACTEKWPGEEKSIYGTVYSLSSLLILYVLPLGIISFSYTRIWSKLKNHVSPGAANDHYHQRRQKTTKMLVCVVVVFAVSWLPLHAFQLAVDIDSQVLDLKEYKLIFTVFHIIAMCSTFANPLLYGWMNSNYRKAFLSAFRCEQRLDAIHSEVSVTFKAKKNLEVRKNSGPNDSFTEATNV
The assay can be described thus: Fluorescence-based cell-based high-throughput dose response assay for agonists of NPY-Y2. [Related pubchem assays: 1703 (Screening assay (CNGC inhibitors).), 1359 (Screening assay (NPY-Y2 potentiators or agonists).), 1304 (Screening assay (NPY-Y1 potentiators or agonists).), 1710 (Screening assay (NPY-Y2 agonists).), 1791 (Summary AID.)]. The assay is classed as functional.

Assay [2] in a line: inhibitors of intracellular T. cruzi replication, confirmation, NIH3T3 host cells, beta-gal luminescence (AID 2044).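 Also: intracellular parasites grown in NIH/3T3 mouse fibroblasts as host cells; luminescent beta-galactosidase reporter signal from transgenic T. cruzi replicating inside host cells; inhibitors lower the luminescence signal.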 The assay is classed as functional, cell-based.
Assay [3] concerns the target T2, Neuropeptide Y receptor type 1 (Homo sapiens, UniProt P25929).
T2 sequence (P25929 whole entry): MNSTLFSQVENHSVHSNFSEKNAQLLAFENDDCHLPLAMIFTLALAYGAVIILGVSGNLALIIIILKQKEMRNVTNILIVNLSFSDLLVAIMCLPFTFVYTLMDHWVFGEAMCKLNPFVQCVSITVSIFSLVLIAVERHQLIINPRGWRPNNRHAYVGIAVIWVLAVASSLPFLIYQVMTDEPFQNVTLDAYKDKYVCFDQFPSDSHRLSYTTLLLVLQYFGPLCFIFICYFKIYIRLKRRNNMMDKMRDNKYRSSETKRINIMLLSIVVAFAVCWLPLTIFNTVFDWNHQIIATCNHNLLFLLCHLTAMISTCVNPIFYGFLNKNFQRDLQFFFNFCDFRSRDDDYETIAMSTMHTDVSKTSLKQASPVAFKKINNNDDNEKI
Description: Fluorescence-based counterscreen for agonists of NPY-Y2: cell-based high-throughput dose response assay for agonists of NPY-Y1. The assay is classed as functional.

The nature of assay [4]: cytotoxicity toward NIH3T3 fibroblasts, dose response, counter-screen, cell-based, ATP luminescence, mouse fibroblasts (AID 2010).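 Also: cells exposed to compound for about 90 hours before reading.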 The assay is classed as functional.
Assay [5] is described as follows: THP-1 cell cytotoxicity, dose response, cytotoxicity control for Vif-APOBEC3G degradation inhibitor project, THP-1 cells (AID 1117359). The assay is classed as functional. Conditions: Human immunodeficiency virus 1, THP-1.
Assay [6] is described as follows: inhibitors of Vif binding to APOBEC3G peptide, primary screen, biochemical, TR-FRET, GST-Vif 1-94, biotin-A3G peptide, dose response retest (AID 1117319).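 Also: TR-FRET signal of purified GST-Vif binding a biotinylated A3G peptide; inhibitors lower the FRET signal by blocking Vif and A3G binding.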 The assay is classed as functional.
In assay [7] the test system is Streptococcus sp. 'group A'. The assay can be described thus: growth inhibition of control SK(-) GAS strain, dose response, counter-screen for streptokinase expression inhibitor project, luminescence, kanamycin, BacTiterGlo, confirmation (AID 1900). The assay is classed as functional, organism-based.
Assay [8] relates to Streptococcus. The assay can be described thus: Luminescence Microorganism-Based Dose Response Follow up to Identify Compounds Cytotoxic to Streptococcus. [Related pubchem assays: 1677 (Project Summary), 1915, 1914, 1902 (Retest at Dose), 1900 (Counter Screen), 1662 (Primary HTS)]. The assay is classed as functional, organism-based.
The target in assay [9] is T3, Streptokinase A (Streptococcus pyogenes serotype M1, UniProt P10520).
T3 sequence (P10520 whole entry): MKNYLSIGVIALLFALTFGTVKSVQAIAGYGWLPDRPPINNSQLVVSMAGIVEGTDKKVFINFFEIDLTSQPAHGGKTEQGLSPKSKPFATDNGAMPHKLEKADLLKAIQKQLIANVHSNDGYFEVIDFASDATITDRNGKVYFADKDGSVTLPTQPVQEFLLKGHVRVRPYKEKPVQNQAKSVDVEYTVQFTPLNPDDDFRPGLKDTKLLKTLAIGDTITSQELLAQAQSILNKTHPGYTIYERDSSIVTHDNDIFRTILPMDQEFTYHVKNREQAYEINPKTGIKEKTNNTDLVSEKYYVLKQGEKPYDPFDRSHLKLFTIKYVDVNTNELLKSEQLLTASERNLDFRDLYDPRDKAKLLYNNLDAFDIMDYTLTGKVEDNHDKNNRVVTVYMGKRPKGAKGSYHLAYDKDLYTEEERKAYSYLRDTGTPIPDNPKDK
The assay can be described thus: S. pyogenes streptokinase expression inhibitors, potency, dose response, plasminogen activation absorbance, OD405 (AID 1914).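 Also: secreted streptokinase activity via plasminogen activation per viability signal from cell pellet.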 The assay is classed as functional, Streptococcus pyogenes M1 GAS.

The target in assay [10] is T3, Streptokinase A. The assay can be described thus: Absorbance Microorganism-Based Dose Response Follow up to Identify Inhibitors of Streptokinase Expression. [Related pubchem assays: 1677 (Project Summary), 1915, 1914, 1902 (Retest at Dose), 1900 (Counter Screen), 1662 (Primary HTS)]. The assay is classed as functional, Streptococcus pyogenes M1 GAS.
Assay [11] deals with Streptococcus. The assay can be described thus: Streptococcus pyogenes growth inhibition counter-screen, dose response, counter-screen for streptokinase expression inhibitor project, luminescence, BacTiter-Glo, strain UMAA2166 (AID 2477). The assay is classed as functional, organism-based.
The subject of assay [12] is Streptococcus. The assay can be described thus: Group A Streptococcus viability loss, dose response, counter-screen for streptokinase expression inhibitor project, luminescence, BacTiterGlo (AID 1915).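 Also: potency for reduction of bacterial viability or growth.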 The assay is classed as functional, organism-based.
Assay [13] is described as follows: Absorbance Microorganism-Based Dose Response Follow up to Identify Inhibitors of Streptokinase Expression. [Related pubchem assays: 1677 (Project Summary), 1915, 1914, 1902 (Retest at Dose), 1900 (Counter Screen), 1662 (Primary HTS)].
In assay [14] the target is Glucose-6-phosphate 1-dehydrogenase (Homo sapiens, UniProt P11413). The assay can be described thus: human G6PD enzyme inhibitors, dose response, selectivity assay for P. falciparum G6PD inhibitor project, biochemical, fluorescence (AID 504792). The assay is classed as functional.
Another assay has as its system HeLa. The assay can be described thus: HeLa cell cytotoxicity, dose response, cytotoxicity control, 24 h, cherry-picked samples (AID 504726).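 Also: potency for cytotoxicity as loss of luminescence signal.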 The assay is classed as functional, cell-based. Conditions: Homo sapiens.
Another assay concerns the target ORF 73 (Human herpesvirus 8, UniProt O40947). Description: inhibitors of C-LANA binding to LBS DNA, dose response, biochemical, fluorescence polarization, cherry-picked samples (AID 504725).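 Also: fluorescence polarization of a labeled DNA duplex reporting LANA DNA binding; potency is for inhibitors that block LANA binding to the DNA.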 Further details: species or system Human gammaherpesvirus 8.
In another assay the target is Troponin, cardiac muscle (Homo sapiens, UniProt P19429+P45379+P63316). Description: inhibitors of cardiac thin filament calcium sensitivity, dose response, biochemical, fluorescence, cardiac regulated thin filaments, triplicate IC50 (AID 504742). The assay is classed as protein-complex assay.
The target in a further assay is Genome polyprotein (dengue virus type 2, UniProt P29990). The assay can be described thus: Dengue-2 NS5 methyltransferase inhibitors, primary screen, biochemical, confirmation dose response (AID 588689). The assay is classed as functional.
Assay [15] deals with Peroxisome proliferator-activated receptor gamma/Nuclear receptor coactivator 1 (Homo sapiens, UniProt P37231). The assay can be described thus: TR-FRET dose response biochemical High Throughput Screening assay for agonists of the steroid receptor coactivator 1 (SRC-1) recruitment by the peroxisome proliferator-activated receptor gamma (PPAR gamma): non-selective agonists. [Related pubchem assays (depositor defined):AID1300, AID1808, AID504735, AID631]. The assay is classed as protein assay.
Sequence of Peroxisome proliferator-activated receptor gamma/Nuclear receptor coactivator 1 (P37231 whole entry): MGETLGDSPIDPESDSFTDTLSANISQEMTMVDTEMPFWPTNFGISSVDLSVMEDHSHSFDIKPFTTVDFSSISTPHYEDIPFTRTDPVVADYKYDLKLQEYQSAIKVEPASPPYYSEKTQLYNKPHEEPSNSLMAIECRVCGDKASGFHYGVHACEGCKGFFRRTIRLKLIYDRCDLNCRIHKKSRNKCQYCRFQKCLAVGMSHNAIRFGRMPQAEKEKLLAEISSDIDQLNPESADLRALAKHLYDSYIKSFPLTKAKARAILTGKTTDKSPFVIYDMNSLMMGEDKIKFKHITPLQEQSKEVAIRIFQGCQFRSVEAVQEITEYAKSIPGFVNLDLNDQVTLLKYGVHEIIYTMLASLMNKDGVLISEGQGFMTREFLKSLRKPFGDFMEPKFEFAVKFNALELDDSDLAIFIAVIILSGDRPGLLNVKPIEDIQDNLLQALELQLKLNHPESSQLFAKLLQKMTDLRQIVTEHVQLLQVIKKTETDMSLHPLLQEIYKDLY
Sequence of Peroxisome proliferator-activated receptor gamma/Nuclear receptor coactivator 1 (Q15788 whole entry, further chain): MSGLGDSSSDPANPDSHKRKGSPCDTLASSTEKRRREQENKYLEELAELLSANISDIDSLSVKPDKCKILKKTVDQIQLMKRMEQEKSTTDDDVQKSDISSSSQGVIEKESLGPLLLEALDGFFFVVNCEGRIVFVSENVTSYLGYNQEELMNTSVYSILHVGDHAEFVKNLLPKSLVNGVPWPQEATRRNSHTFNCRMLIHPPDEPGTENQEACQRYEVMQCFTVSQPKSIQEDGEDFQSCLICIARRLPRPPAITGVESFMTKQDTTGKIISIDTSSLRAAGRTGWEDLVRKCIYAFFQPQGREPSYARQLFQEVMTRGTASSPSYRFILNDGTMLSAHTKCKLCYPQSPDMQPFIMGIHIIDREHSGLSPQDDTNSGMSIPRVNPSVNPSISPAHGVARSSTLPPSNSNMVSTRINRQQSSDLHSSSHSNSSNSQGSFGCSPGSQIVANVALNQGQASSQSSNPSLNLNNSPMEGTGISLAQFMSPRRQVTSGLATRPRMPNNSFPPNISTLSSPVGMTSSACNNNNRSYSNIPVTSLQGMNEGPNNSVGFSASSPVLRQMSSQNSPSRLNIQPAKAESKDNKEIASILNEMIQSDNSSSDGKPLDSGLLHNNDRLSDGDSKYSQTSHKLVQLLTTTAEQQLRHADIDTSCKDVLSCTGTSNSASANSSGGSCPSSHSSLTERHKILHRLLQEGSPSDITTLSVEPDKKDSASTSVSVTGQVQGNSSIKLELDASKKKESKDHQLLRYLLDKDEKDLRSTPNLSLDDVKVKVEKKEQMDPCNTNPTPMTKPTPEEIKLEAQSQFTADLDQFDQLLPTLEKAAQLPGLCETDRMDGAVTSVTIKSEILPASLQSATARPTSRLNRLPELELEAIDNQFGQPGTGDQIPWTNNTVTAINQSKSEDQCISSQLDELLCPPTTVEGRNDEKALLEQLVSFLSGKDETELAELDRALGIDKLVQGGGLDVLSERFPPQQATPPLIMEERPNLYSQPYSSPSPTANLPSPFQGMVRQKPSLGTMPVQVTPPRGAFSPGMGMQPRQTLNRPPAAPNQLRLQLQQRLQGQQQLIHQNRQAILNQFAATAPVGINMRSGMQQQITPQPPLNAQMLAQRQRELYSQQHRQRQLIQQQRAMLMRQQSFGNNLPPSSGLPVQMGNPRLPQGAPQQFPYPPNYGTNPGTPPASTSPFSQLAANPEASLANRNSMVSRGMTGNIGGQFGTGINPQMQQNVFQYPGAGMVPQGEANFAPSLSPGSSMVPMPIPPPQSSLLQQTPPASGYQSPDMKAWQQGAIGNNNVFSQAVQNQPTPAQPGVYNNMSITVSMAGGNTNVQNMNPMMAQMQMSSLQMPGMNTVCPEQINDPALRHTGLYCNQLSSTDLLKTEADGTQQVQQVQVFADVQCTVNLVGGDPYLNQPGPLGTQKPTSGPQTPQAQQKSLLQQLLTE

A further assay addresses Bcl-2-like protein 10 (Homo sapiens, UniProt Q9HD36). The assay can be described thus: displacers of TR3 peptide from Bcl-B, primary screen, selectivity assay for Bfl-1 inhibitor project, biochemical, fluorescence polarization, FITC-TR3 peptide (AID 748).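 Also: fluorescence polarization from a fluorescein-labelled TR3 peptide binding purified Bcl-B.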
In assay [16] the target is Peroxisome proliferator-activated receptor gamma/Nuclear receptor coactivator 3 (Homo sapiens, UniProt P37231). Description: TR-FRET dose response biochemical High Throughput Screening assay for agonists of the steroid receptor coactivator 3 (SRC-3) recruitment by the peroxisome proliferator-activated receptor gamma (PPAR gamma): non-selective agonists. [Related pubchem assays: 1301 (Confirmation screen.), 1048 (Primary screen.)]. The assay is classed as functional.
Sequence of Peroxisome proliferator-activated receptor gamma/Nuclear receptor coactivator 3 (P37231 whole entry): as the sequence (P37231 whole entry) above
Sequence of Peroxisome proliferator-activated receptor gamma/Nuclear receptor coactivator 3 (Q9Y6Q9 whole entry, further chain): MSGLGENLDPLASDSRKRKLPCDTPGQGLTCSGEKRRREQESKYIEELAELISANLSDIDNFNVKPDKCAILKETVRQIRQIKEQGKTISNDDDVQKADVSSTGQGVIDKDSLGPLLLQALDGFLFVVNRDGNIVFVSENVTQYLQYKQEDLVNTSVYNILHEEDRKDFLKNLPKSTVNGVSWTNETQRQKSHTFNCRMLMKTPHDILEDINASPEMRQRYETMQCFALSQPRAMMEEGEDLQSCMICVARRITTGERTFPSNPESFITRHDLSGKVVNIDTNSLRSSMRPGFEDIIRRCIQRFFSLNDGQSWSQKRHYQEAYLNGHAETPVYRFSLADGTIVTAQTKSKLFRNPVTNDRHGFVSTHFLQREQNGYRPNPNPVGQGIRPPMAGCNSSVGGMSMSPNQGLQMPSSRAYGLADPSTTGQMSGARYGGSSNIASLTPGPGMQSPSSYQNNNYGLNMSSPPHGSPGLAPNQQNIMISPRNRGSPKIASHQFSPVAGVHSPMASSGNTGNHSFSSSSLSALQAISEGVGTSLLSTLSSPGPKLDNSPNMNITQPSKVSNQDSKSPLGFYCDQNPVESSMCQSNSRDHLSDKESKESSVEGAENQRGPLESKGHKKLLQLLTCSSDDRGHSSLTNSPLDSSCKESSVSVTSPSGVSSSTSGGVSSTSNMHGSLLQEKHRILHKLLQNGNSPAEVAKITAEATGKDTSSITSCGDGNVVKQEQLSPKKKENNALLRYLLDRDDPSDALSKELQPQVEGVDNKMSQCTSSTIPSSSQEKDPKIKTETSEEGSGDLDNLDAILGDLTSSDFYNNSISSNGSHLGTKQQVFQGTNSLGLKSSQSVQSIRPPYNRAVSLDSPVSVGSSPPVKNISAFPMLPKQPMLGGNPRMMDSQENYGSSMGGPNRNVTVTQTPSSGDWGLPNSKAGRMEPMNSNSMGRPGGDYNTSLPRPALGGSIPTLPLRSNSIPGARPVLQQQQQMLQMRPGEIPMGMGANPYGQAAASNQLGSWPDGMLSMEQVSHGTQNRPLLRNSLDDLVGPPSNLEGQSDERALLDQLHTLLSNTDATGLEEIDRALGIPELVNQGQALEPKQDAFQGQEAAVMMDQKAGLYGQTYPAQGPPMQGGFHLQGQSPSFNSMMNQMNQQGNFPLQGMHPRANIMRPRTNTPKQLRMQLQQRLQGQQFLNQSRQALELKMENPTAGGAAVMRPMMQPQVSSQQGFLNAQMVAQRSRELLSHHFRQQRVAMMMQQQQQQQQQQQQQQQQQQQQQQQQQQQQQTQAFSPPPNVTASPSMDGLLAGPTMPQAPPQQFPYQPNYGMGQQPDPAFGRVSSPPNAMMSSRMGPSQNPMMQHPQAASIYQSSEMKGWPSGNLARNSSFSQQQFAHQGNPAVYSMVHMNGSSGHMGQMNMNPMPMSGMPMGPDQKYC

Another assay addresses Estrogen receptor beta (Homo sapiens, UniProt Q92731).
In assay [17] the target is Peroxisome proliferator-activated receptor gamma/Nuclear receptor coactivator 2 (Homo sapiens, UniProt P37231). The assay can be described thus: TR-FRET dose response biochemical High Throughput Screening assay for agonists of the steroid receptor coactivator 2 (SRC-2) recruitment by the peroxisome proliferator-activated receptor gamma (PPAR gamma): non-selective agonists. [Related pubchem assays: 1297, 1032 ]. The assay is classed as functional.

Assay [18] deals with Mitogen-activated protein kinase 10 (Homo sapiens, UniProt P53779). Description: Dose response biochemical screening assay for inhibitors of c-Jun N-Terminal Kinase 3 (JNK3). [Related pubchem assays: 746 ].

Sequence of ORF 73 (O40947 whole entry): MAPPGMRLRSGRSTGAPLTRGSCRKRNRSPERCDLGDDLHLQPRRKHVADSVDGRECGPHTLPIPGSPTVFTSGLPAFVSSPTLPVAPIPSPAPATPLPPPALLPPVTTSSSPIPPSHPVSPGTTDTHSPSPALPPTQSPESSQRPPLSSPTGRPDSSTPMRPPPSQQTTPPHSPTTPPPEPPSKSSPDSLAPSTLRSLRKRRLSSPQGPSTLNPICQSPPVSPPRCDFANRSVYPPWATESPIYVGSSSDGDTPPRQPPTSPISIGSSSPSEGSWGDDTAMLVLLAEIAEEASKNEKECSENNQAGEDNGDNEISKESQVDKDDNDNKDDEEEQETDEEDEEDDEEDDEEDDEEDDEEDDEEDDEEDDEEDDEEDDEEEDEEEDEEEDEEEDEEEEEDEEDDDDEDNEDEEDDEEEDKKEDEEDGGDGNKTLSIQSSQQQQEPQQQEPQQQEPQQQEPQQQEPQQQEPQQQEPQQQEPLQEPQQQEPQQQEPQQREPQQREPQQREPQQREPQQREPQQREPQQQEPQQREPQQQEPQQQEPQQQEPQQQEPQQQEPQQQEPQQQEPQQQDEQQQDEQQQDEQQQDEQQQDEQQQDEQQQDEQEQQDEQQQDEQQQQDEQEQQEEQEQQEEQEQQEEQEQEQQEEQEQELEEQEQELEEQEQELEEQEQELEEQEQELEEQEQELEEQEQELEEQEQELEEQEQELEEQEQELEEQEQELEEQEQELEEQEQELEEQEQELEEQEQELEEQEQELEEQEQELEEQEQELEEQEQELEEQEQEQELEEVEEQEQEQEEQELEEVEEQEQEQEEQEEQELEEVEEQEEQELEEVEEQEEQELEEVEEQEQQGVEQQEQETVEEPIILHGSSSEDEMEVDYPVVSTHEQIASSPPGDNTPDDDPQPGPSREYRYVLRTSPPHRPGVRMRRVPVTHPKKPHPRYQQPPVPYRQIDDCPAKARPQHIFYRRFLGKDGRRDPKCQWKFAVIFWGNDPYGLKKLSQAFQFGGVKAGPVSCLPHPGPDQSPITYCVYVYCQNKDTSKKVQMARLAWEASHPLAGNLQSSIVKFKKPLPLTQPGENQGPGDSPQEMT

With `COc1ccc(NC(=O)c2c(OC)cccc2OC)c(OC)c1`, the EC50 in the assay with HEK293 is > 35.4 µM (not active); in assay [1], > 35.4 µM (not active); in assay [2] it was 3.06 µM (active); in assay [3], > 35.4 µM (not active); in [4] it was > 60 µM (not active). The CC50 in [5] is > 40 µM (active). In addition, in assay [6], the IC50 was > 60.5 µM (active).
Consider `CCCOc1ccc(-c2nc(OC)c3ccccc3n2)cc1`, for which the concentration giving a half-maximal response (EC50) was 17.9 µM (active) in [7]; > 500 µM (not active) in the assay with Streptococcus [8]; 6.02 µM (active) at Streptokinase A [9]; 3.83 µM (active) at Streptokinase A [10]; > 500 µM (not active) with Streptococcus [11]; > 150 µM (not active) in the assay on Streptococcus [12]. In addition, the EC50 in assay [13] was 4.03 µM (active).
For the compound `O=C1C=CC2=C3c4cc(O)c(O)cc4CC3(O)COC2=C1O` (stereo not given), the IC50 in assay [14] was > 80 µM (inactive); at Troponin, cardiac muscle, 16.6 µM (inactive); on Genome polyprotein it was 26.5 µM (active). The AC50 in the assay on HeLa was 179 µM (active); on ORF 73, 40.3 µM (active).
`CC(=O)c1sc2nc(SCC(=O)N3CCCCC3)[nH]c(=O)c2c1C`: the EC50 in assay [15] is > 79.4 µM (inactive); in assay [16], > 79.4 µM (not active); in [17], > 79.4 µM (not active). For the same compound, the IC50 at Bcl-2-like protein 10 is > 100 µM (inactive); at Estrogen receptor beta it was 14.6 µM (active); in [18], > 93.1 µM (not active).
